Results reported in ChEMBL document CHEMBL1154991, “Activity-guided isolation of antioxidative constituents of Cotinus coggygria” (J Nat Prod, 2000).
In brackets after ≈: the same amount, converted by molar mass.

System: Radical scavenging activity
Experiment: Antioxidant activity assessed as DPPH radical scavenging activity after 30 mins
Type: functional

Row | SMILES | IC50
1 | COc1ccc(O)c(C(C)(C)C)c1.COc1ccc(O)cc1C(C)(C)C [BUTYLATED HYDROXYANISOLE] | 21 µg/mL
2 | O=C1/C(=C(/C(=C2\Oc3cc(O)ccc3C2=O)c2ccc(O)c(O)c2)c2ccc(O)c(O)c2)Oc2cc(O)ccc21 | 9.7 µg/mL (≈ 18 µM)
3 | O=C(OC[C@H]1O[C@@H](OC(=O)c2cc(O)c(O)c(O)c2)[C@H](OC(=O)c2cc(O)c(O)c(O)c2)[C@@H](OC(=O)c2cc(O)c(O)c(O)c2)[C@@H]1OC(=O)c1cc(O)c(O)c(O)c1)c1cc(O)c(O)c(O)c1 [PENTAGALLOYL GLUCOSE] | 12.6 µg/mL (≈ 13.4 µM)
4 | O=C(O)c1cc(O)c(O)c(O)c1 [GALLIC ACID] | 10 µg/mL (≈ 58.8 µM)

Now from value to compound:

Row | IC50 | SMILES
5 | 18.7 µg/mL (≈ 43.2 µM) | O=C1/C(=C/c2ccc(O)c(O)c2)Oc2cc(O[C@@H]3O[C@H](CO)[C@@H](O)[C@H](O)[C@H]3O)ccc21 [SULFUREIN]
6 | 16.1 µg/mL (≈ 59.6 µM) | O=C1/C(=C/c2ccc(O)c(O)c2)Oc2cc(O)ccc21 [SULFURETIN]
7 | 18.6 µg/mL (≈ 101 µM) | COC(=O)c1cc(O)c(O)c(O)c1 [GALLIC ACID METHYL ESTER]
8 | 22 µg/mL (≈ 125 µM) | O=C1O[C@H]([C@@H](O)CO)C(O)=C1O [ASCORBIC ACID]
